SMILES | melting point
Nc1ccc2c(=O)n3c(nc2c1)C(=Cc1ccccc1Cl)CC3 | 275 to 280 °C
CSc1sc(-c2nnco2)c2c1C(=O)CC(C)(C)C2 | 185 to 189 °C
O=C(O)C=CC(=O)Nc1n[nH]c2ccc(Br)cc12 | 172 °C
COCOc1c(-c2ccc(C(=O)O)cc2)cccc1-c1ccc2c(c1)C(C)(C)CCC2(C)C | 74 °C
CCCCC(CC)COc1ccc2cc3cc(OCC(CC)CCCC)ccc3cc2c1 (stereo not drawn) | 60 to 62 °C
CCOc1c(OC)cc([N+](=O)[O-])c2ncccc12 | 88 to 95 °C
Cc1occc1C(=O)Nc1ccc(Cl)c(C=NN2CCOCC2)c1 | 121 to 123 °C
COc1ccc(/C=C/[N+](=O)[O-])c(F)c1 | 80 to 82 °C
Cc1cc2c(c(C(C)(C)C)c1)OP(NC1CC(C)(C)N(C)C(C)(C)C1)Oc1c(cc(C)cc1C(C)(C)C)C2 | 207 to 216 °C
c1ccc2c(c1)CCN(Cc1n[nH]c3c1CCc1ccccc1-3)C2 | 180 to 182 °C
Cc1ccc(O)cc1C(CCC(=O)O)Oc1cc(OCc2cccnc2)ccc1C#N (racemic) | 198 to 200 °C
O=C(COCCc1coc2c(O)cccc12)c1ccccc1 | 114 to 115 °C
COC(=O)C(ON1C(C)(C)CCCC1(C)C)c1ccccc1 (stereo not drawn) | 83 to 86 °C
COc1ccc(-n2c(CF)nc3ccc([N+](=O)[O-])cc3c2=O)c(C)c1 | 190 to 192 °C
Fc1ccc2c(-c3ccncc3)noc2c1 | 138 to 146 °C
Cc1cc(C)cc(-c2ccc3c(c2)CC[C@H]2N(C)C(=O)CC[C@]32C)c1 | 129 to 130 °C
Cn1ncc(/C=C/C(=O)Nc2ccc(Cc3nccs3)cc2)c1-c1ccc(F)cc1 | 209 to 210 °C
O=C(Cc1ccc(Cc2ccc(F)cc2)o1)C(=O)c1ccc[nH]1 | 96 to 98 °C
CNC(=O)c1cc2ccc3c(c2c(-c2ccc(OC(F)(F)F)cc2)c1CO)OCO3 | 195 to 197 °C
Clc1ccccc1-c1nc(-c2ccccc2)c(-c2ccccc2)n1Br | 103 to 105 °C
CC(=O)Nc1c(CC(=O)O)cccc1C(=O)c1ccccc1 | 188 to 190 °C
CCOC(=O)c1cn2c3c(cc(CN4CCOCC4)cc3c1=O)OC(F)(F)C2 | 176 to 177 °C

SMILES | melting point
CC(C)Oc1ccc(CCCOc2nn(Cc3ccccc3)cc2CC(=O)O)c(OCc2ccc(Cl)cc2Cl)c1 | 103 to 104 °C
Cc1ccc(C(=O)NC(=O)N2CC2C#N)cc1 (stereo not drawn) | 177 to 180 °C
CCCCCc1c(C(C)C)cc(C(C)C)c(C(C)=O)c1-c1ccc(F)cc1 | 123 to 124 °C
Nc1ncnc2c1nnn2[C@@H]1C[C@H](CO)[C@@H](O)[C@@H]1F | 214 to 216 °C
CCOC(COC1CC2C3CCC4=CC(=O)C=CC4(C)C3(F)C(O)CC2(C)C1(O)C(=O)CCl)OCC (stereo not drawn) | 200 to 202 °C
COC(=O)c1ccc(OCCCN(C(=O)c2ccc(C(C)(C)C)cc2)c2ccc(Cl)cc2)cc1 | 201 to 203 °C
CC(=O)Oc1ccc(C(=O)c2ccc(C)c(OC(C)=O)c2)cc1 | 60 to 64 °C
CCOC(=O)c1c(C(F)(F)F)nc(C(F)F)c(C(=O)OC)c1OCC | 59 to 61 °C
CC(=O)Nc1cccc2c1C(=O)OC2(C)C | 124 °C
CCCCN(CCCC)CCCOc1ccc(C(=O)c2c(C)oc3c(NS(C)(=O)=O)cccc23)cc1 | 135 °C
CC(C)[C@H](NC(=O)OCc1ccccc1)C(N)=O | 206 °C
CCN(CC)CCC(=O)Nc1ccc(NC(=O)Nc2ccc(N(CCCl)CCCl)cc2)cc1 | 178 to 179 °C
COC1=CC(=O)N([C@@H]2c3cc(C#N)ccc3OC(C)(C)[C@H]2O)C1 (relative stereo) | 225 °C
O=C(Nc1cccc(C(F)(F)F)c1)N1CCc2cc(Oc3cc(Cl)ncn3)ccc21 | 181 °C
CCC1CC(=Cc2ccccc2Cl)C(=O)O1 (stereo not drawn) | 38 to 39 °C
Fc1ccc(CN2CCN(C3CC=C(c4ccc(F)cc4)CC3)CC2)cc1 (stereo not drawn) | 109 to 110 °C
O=c1c2ccc(Cl)cc2[nH]c2c(=O)n(-c3ccc(F)cc3)nc(O)c12 | 390 to 392 °C
COc1cc(NC2CCN(Cc3ccccc3)CC2)ccc1C(N)=O | 155 to 157 °C
COC(=O)c1cccc2c1Nc1cccc(I)c1C2 | 108 to 110 °C
CC(=S)NC[C@H]1CN(c2ccc(-c3nc(Cn4cccn4)cs3)c(F)c2)C(=O)O1 | 166 to 168 °C
CC=NN(C(=O)c1ccc(C)cc1)c1ccc2c(c1)OCCO2 | 121 to 123 °C
CN1CCCC1CNC(=O)c1cc(S(=O)(=O)N(C)C)cc2c1OCCO2 (stereo not drawn) | 165 to 166 °C

SMILES | melting point
Cc1ccc(C(=S)c2[nH]c3cc(Cl)ccc3c2N)cc1 | 172 to 173 °C
Nc1ncc(CCC2CCCCC2)s1 | 98 to 99 °C
CONC(=N)c1ccc(-c2ccc(-c3ccc(C(=N)NOC)o3)cc2)cc1 | 194 to 196 °C
COc1ccc(C2(O)CC3CCC(C2)N3C)cc1 (stereo not drawn) | 162 °C
COc1ccc(C2CCCN(C)C2)c2c1NC(=O)C2 (stereo not drawn) | 170 °C
CN1Cc2cc(F)ccc2-n2c(c(C#CC(C)(O)C3CC3)[nH]c2=O)C1 (stereo not drawn) | 191 to 192 °C
CN(C)C(=O)C1Cc2cc(Cl)ccc2NC1=O (stereo not drawn) | 302 to 305 °C
FC(F)(F)c1cccc(N2CCN(Cc3n[nH]c4ccccc34)CC2)c1 | 78 to 80 °C
CC(C)(C)OC(=O)Nc1ccc2ccc(C#N)cc2c1 | 126 to 128 °C
CNCc1ccc(C2=NCCN2C(=O)OC(C)(C)C)cc1 | 65 °C
CCOC(=O)/C(=N\OCCN=[N+]=[N-])c1csc(N)n1 | 123 to 124 °C
CCc1cn(C2CC(OC(C)=O)C(CN(C)C(=O)Cc3ccccc3Br)O2)c(=O)[nH]c1=O (stereo not drawn) | 170 °C
O=C(O)CCn1[nH]c(=O)c2ccccc2c1=O | 201 to 203 °C
O=C(c1ccn2c1CSC2c1cccnc1)c1cn(S(=O)(=O)c2ccccc2)c2cc(-c3ccc(F)cc3)ccc12 (stereo not drawn) | 115 to 116 °C
C#CCN1C(Oc2ccc(C)cc2)=NS(=O)(=O)N=C1Oc1ccc(C)cc1 | 279 to 280 °C
N#Cc1c(N)nc2ccc(N3CCN(Cc4ccccc4)CC3)cc2c1NCc1ccccc1 | 202 °C
O=C1C=C2CCCCC2N1c1ccc(O)c(Cl)c1 (stereo not drawn) | 216 °C
COc1cc2c(cc1OC)C(=CO)C(=O)N2 | 216 to 217 °C
CN1CCCCC1CCc1ccccc1NC(=O)c1cccnc1 (stereo not drawn) | 88 to 90 °C
COc1ccc(Cn2c(Cl)nc3c(-c4ccc(Cl)o4)ncnc32)cc1 | 156 to 157 °C

Next, values leading:

melting point | SMILES
106 to 107 °C | O=C(O)CCc1cnoc1-c1ccc(Cl)cc1Cl
64 to 65 °C | COc1cc(CCCCCCC=O)ccc1OCc1nc(-c2ccccc2)oc1C
180 to 183 °C | Cn1cc(C=CC(=O)NCN2CCCC2)c([N+](=O)[O-])n1
162 °C | COc1ccc(C(C)N(C)CCCOc2ccc(S(=O)(=O)c3ncc(-c4ccccc4)n3-c3ccccc3)cc2)cc1OC (stereo not drawn)
181 to 182 °C | Nc1nc2[nH]c(CCCc3cc(C(=O)O)cs3)cc2c(=O)[nH]1
> 300 °C | Cc1ccccc1Sc1c(O)c2c(Cl)cc(Cl)cc2[nH]c1=O
195 to 200 °C | N#Cc1ccc(NC(=N)Nc2ccc(C#N)cc2)cc1
192 to 193 °C | COC1CN(C(=O)c2cc(-c3ccccc3)c(=O)n3c2-c2sccc2C3)C1
97 to 98 °C | O=C(O)C(=O)c1ccc(OCCOc2ccc(F)cc2)cc1
210 to 212 °C | NC(=O)c1nn(C2OC(CO)C(O)C2O)nc1C(N)=O (stereo not drawn)
184 to 185 °C | CCn1cc(S(=O)(=O)NC(=O)c2cn3cc(C(F)(F)F)cc(Cl)c3n2)c(Cl)n1
91 to 92 °C | OCCCc1ccc(SCc2coc(/C=C/c3ccccc3)n2)cc1
233 to 236 °C | Oc1ccc2c(c1)COc1c-2cc2ccc(O)cc2c1-c1cccs1
154 to 157 °C | CSc1ccc(/C=C2/C(C)=C(CCCCN(O)C(N)=O)c3cc(F)ccc32)cc1
182 to 186 °C | COc1ccc(-c2nc(C)c(Cl)[nH]2)cc1
176 to 178 °C | O=C(NC1=NN(c2ccc(Cl)cc2)C(c2ccccc2)C1)C(F)(F)F (stereo not drawn)
165 to 168 °C | Cc1nn(-c2ccc(Cl)nn2)c(C)c1N
236 to 237 °C | O=C(O)c1ccc(C=Cc2cc3ccccc3s2)s1
184 to 185 °C | COc1cc(N(Cc2cccnc2)c2ccc(C(=O)O)cc2)ccc1OC(F)F
128 to 129 °C | COC(=O)CCc1[nH]c(Cc2ccc(OCc3nc(-c4ccccc4)oc3C)cc2)nc1-c1ccccc1

melting point | SMILES
63 to 64 °C | CCOC(=O)CC(=O)N(C)c1ccccc1N
121 to 122 °C | CCCn1c(N)cc(=O)n(CC2CCCCC2)c1=O
211 °C | CCOC(=O)C1=C(c2ccc(OC)cc2)Nc2n[nH]cc2C1c1ccccc1Cl (stereo not drawn)
130 to 133 °C | COc1ccc(-c2cncc(C#N)c2Nc2ccc3[nH]ccc3c2C)cc1OC
212 to 213 °C | COc1ccc(Cn2c(C)cc3cn[nH]c(=O)c32)cc1
176 to 178 °C | CON=C(C)c1cc2c(Cl)cc(F)c(-n3c(=O)cc(C(F)(F)F)n(C)c3=O)c2o1
83 to 85 °C | CCNCCC1CCc2cc(OCc3ccc(-c4ccccc4)cc3)ccc2C1 (stereo not drawn)
101 to 104 °C | O=C(NCCNCC(O)COc1ccc(O)cc1F)C1CCOCC1 (stereo not drawn)
156 °C | COC(=O)c1ccc(N2CCSC2=N)c([N+](=O)[O-])c1
193 to 197 °C | OCC1CCC(N2CCC(=C3c4ccccc4Sc4ccc(C(F)(F)F)cc43)CC2)CC1 (stereo not drawn)
169 to 171 °C | Nc1ccn(CC(O)CO)c(=O)n1 (stereo not drawn)
113 to 115 °C | ON=CCc1ccc(F)cc1
106 to 108 °C | CC(C)c1cc(C(=O)Nc2ccc(C(=O)O)nc2)oc1C(C)C
58 to 59 °C | Cc1cc(C)c2c(c1C)OC(C)(CC#N)C2 (stereo not drawn)
110 to 111 °C | O=Cc1nn(-c2ccc(Cl)cc2)nc1-c1ccccc1
122 to 124 °C | CC(C)c1cccc(C(C)C)c1NC(=NCc1cccc(CCl)c1)Nc1c(C(C)C)cccc1C(C)C
101 to 102 °C | Cc1ccc(-c2nc(Cc3cccc(CBr)c3)c(C)o2)cc1
223 to 225 °C | O=C1NC(=O)C(c2ccc(Cl)c(Cl)c2)N1 (stereo not drawn)
140 °C | COC(=O)/C(=N/O)c1cccc([N+](=O)[O-])c1
